What was measured:
[1] = test system: mouse peritoneal macrophages; test: In-vitro assay of macrophage mediated cytotoxicity ([125I]IdUrd radioactive release assay); assay type: cell-based; conditions: for cpm +/- S.D.: 10^-8 M FMLP, radioactivity of remaining viable target tumor cells
[2] = test system: mouse peritoneal macrophages; test: as above; assay type: cell-based
Protocol: FMLP was purchased from Sigma Chemical Co. The stock solution (10 mM) was made in methanol and stored at -70° before use. For free form use, the stock solution was diluted to concentrations between 10^-4 M and 10^-7 M with CMEM containing 5% FBS. […]
Macrophage mediated cytotoxicity was assessed by a radioactive release assay as described in Sone S. and Fidler I. J., Cell Immunology 57, 42 (1981). Target cells in exponential growth phase were incubated for 24 h in medium supplemented with [^125 I]IdUrd (0.2 μCi/ml; specific activity, 200 mCi/mmol; New England Nuclear, Boston, Mass.). The cells then were washed 3 times with warm HBSS to remove unbound radiolabel, harvested by a short trypsinization (0.25% Difco trypsin and 0.02% EDTA for 1 min at 37°), and resuspended in CMEM containing 5% FBS. Viable cells were plated into the wells containing macrophages to achieve a population density of 2500 macrophages and 250 tumor cells per sq mm (or an initial macrophage:target cell ratio of 10/1). At this population density, normal (untreated) macrophages are not cytotoxic to neoplastic cells. No significant differences were detected in the plating efficiency (binding) of [^125 I]IdUrd-labeled target cells to control or liposome-treated macrophage populations. Radiolabeled target cells also were plated alone as an additional control group. The macrophage-target cell cultures were refed with medium 24 h after the addition of the target cells to remove all nonplated cells and then were incubated for up to 3 days at 37°. At this time, the cultures were washed twice with HBSS to remove […], and the remaining viable, adherent cells were lysed with 0.1 ml of 0.1N NaOH. The lysate was absorbed in a cotton swab and placed directly into 10×75 mm tubes; radioactivity was measured in a gamma counter. […] The cytotoxic activity of the macrophages was calculated as follows: [formula] Experimental results were analyzed for their statistical significance by Student's 2-tailed t test.

Compound: CSCC[C@H](NC=O)C(=O)N[C@@H](CC(C)C)C(=O)N[C@@H](Cc1ccccc1)C(=O)O [Free FMLP, N-formyl-L-methionyl-L-leucyl-L-phenylalanine]
- cpm +/- S.D. ([1]; Expt. I): 2567 + 70 cpm
- cpm +/- S.D. ([1]; Expt. II): 2441 + 32 cpm
- activation of mouse macrophages to lyse target tumor cells ([1]; all FMLP concentrations (10^-8 to 10^-4 M), 72 hours of co-cultivation): ineffective in rendering macrophages tumoricidal
- cpm +/- S.D. ([2]; 10^-4 M FMLP, Expt. I): 2478 + 74 cpm
- cpm +/- S.D. ([2]; 10^-4 M FMLP, Expt. II): 2263 + 361 cpm
- cpm +/- S.D. ([2]; 10^-5 M FMLP, Expt. I): 2619 + 82 cpm
- cpm +/- S.D. ([2]; 10^-5 M FMLP, Expt. II): 2455 + 106 cpm
- cpm +/- S.D. ([2]; 10^-6 M FMLP, Expt. I): 2633 + 61 cpm
- cpm +/- S.D. ([2]; 10^-6 M FMLP, Expt. II): 2408 + 32 cpm
- cpm +/- S.D. ([2]; 10^-7 M FMLP, Expt. I): 2559 + 109 cpm
- cpm +/- S.D. ([2]; 10^-7 M FMLP, Expt. II): 2298 + 178 cpm

— US4916118A, “Pharmaceutical administration systems containing chemotactic peptides” (Board of Regents, The University of Texas System, priority 1987, dated 1990)
